Results published in US8952024B2, “Herbicidal pyrimidone derivatives” (E I du Pont de Nemours and Company, priority 2009, dated 2015).

Tests used:
Assay type in all cases: in vivo
[1] = test system: ducksalad (Heteranthera limosa); assay: Test B flooded paddy test; details: for Plant response rating, Flood, Ducksalad: 250 g ai/ha, flooded paddy test, visual rating on 0 to 100 scale (0 no effect, 100 complete control) after 13 to 15 days
Procedure, shortened: (§1)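 2-leaf seedlings; pots flooded 3 cm over soil at treatment; cpd dosed into floodwater, depth kept constant. Greenhouse 13–15 d. Visual rating vs untreated controls, 0 = no effect, 100 = complete control.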

[2] = test system: umbrella sedge (Cyperus difformis); assay: Test B flooded paddy test; details: for Plant response rating, Flood, Sedge, Umbrella: 250 g ai/ha, flooded paddy test, visual rating on 0 to 100 scale (0 no effect, 100 complete control) after 13 to 15 days; for Plant response rating, Sedge, Umbrella: Flood (flooded paddy test), 62 g ai/ha, scale of 0 to 100 where 0 is no effect and 100 is complete control, 13 to 15 days
Procedure, shortened: as §1

[3] = test system: barnyardgrass (Echinochloa crus-galli); assay: Test B flooded paddy test; details: for Plant response rating, Flood, Barnyardgrass: 250 g ai/ha, flooded paddy test, visual rating on 0 to 100 scale (0 no effect, 100 complete control) after 13 to 15 days; for Plant response rating, Barnyardgrass: Flood (flooded paddy test), 62 g ai/ha, scale of 0 to 100 where 0 is no effect and 100 is complete control, 13 to 15 days
Procedure, shortened: as §1

rice (Oryza sativa) = assay: Test B flooded paddy test; details: for Plant response rating, Flood, Rice: 250 g ai/ha, flooded paddy test, visual rating on 0 to 100 scale (0 no effect, 100 complete control) after 13 to 15 days; for Plant response rating, Rice: Flood (flooded paddy test), 62 g ai/ha, scale of 0 to 100 where 0 is no effect and 100 is complete control, 13 to 15 days
Procedure, shortened: as §1

[4] = test system: pigweed (Amaranthus retroflexus); assay: Test B pre-/postemergence plant response; details: for Pigweed plant response rating (0 to 100 scale): 62 g ai/ha, 0 is no effect, 13 to 15 days
Procedure, shortened: (§2)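 Visual ratings on a 0–100 scale (100 = complete control) were made versus untreated controls 13–15 days after treatment in a greenhouse. Compounds in surfactant-containing non-phytotoxic solvent were applied preemergence to seeds in loam–sand blend or postemergence to 1- to 4-leaf plants (2–18 cm).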

[5] = test system: Surinam grass (Brachiaria decumbens); assay: Test B pre-/postemergence plant response; details: for Surinam Grass plant response rating (0 to 100 scale): 62 g ai/ha, postemergence, 0 is no effect, 100 is complete control, 13 to 15 days; for Plant response rating, Surinam Grass: Postemergence, scale 0 to 100 (0 no effect, 100 complete control)
Procedure, shortened: as §2

[6] = test system: lambsquarters (Chenopodium album); assay: Test B pre-/postemergence plant response; details: for Lambsquarters plant response rating (0 to 100 scale): 62 g ai/ha, 0 is no effect, 13 to 15 days
Procedure, shortened: as §2

[7] = test system: woolly cupgrass (Eriochloa villosa); assay: Test B pre-/postemergence plant response; details: for Cupgrass, Woolly plant response rating (0 to 100 scale): 62 g ai/ha, 0 is no effect, 13 to 15 days
Procedure, shortened: as §2

[8] = test system: downy bromegrass (Bromus tectorum); assay: Test B pre-/postemergence plant response; details: for Bromegrass, Downy plant response rating (0 to 100 scale): 62 g ai/ha, 0 is no effect, 13 to 15 days
Procedure, shortened: as §2

[9] = test system: bermudagrass (Cynodon dactylon); assay: Test B pre-/postemergence plant response; details: for Bermudagrass plant response rating (0 to 100 scale): 62 g ai/ha, 0 is no effect, 13 to 15 days
Procedure, shortened: as §2

[10] = test system: wheat (Triticum aestivum); assay: Test B pre-/postemergence plant response; details: for Wheat plant response rating (0 to 100 scale): 62 g ai/ha, postemergence, 0 is no effect, 100 is complete control, 13 to 15 days; for Plant response rating, Wheat: Postemergence, 125 g ai/ha, scale 0 to 100 (0 no effect, 100 complete control)
Procedure, shortened: as §2

[11] = test system: yellow nutsedge (Cyperus esculentus); assay: Test B pre-/postemergence plant response; details: for Nutsedge, Yellow plant response rating (0 to 100 scale): 62 g ai/ha, 0 is no effect, 13 to 15 days
Procedure, shortened: as §2

[12] = 31 g ai/ha, postemergence, scale 0 to 100, 0 is no effect, 100 is complete control
[13] = postemergence, 100 is complete control
[14] = Postemergence, 125 g ai/ha, scale 0 to 100 (0 no effect, 100 complete control)
[15] = Postemergence, 250 g ai/ha, scale 0 to 100 (0 no effect, 100 complete control)

SMILES	Plant response rating, Flood, Ducksalad [1]	Plant response rating, Flood, Sedge, Umbrella [2]	Plant response rating, Sedge, Umbrella [2]	Plant response rating, Flood, Barnyardgrass [3]	Plant response rating, Barnyardgrass [3]	Plant response rating, Flood, Rice (rice (Oryza sativa))	Plant response rating, Rice (rice (Oryza sativa))	Plant response rating, Pigweed [4, 12]	Pigweed plant response rating (0 to 100 scale) [4, 13]	Plant response rating, Pigweed [4, 15]	Surinam Grass plant response rating (0 to 100 scale) [5]	Plant response rating, Surinam Grass ([5]; 250 g ai/ha)	Plant response rating, Lambsquarters [6, 12]	Lambsquarters plant response rating (0 to 100 scale) [6, 13]	Plant response rating, Lambsquarters [6, 14]	Plant response rating, Lambsquarters [6, 15]	Plant response rating, Cupgrass, Woolly [7, 12]	Cupgrass, Woolly plant response rating (0 to 100 scale) [7, 13]	Plant response rating, Cupgrass, Woolly [7, 14]	Plant response rating, Cupgrass, Woolly [7, 15]	further results
COCC(C)n1c(-c2ccccc2)ncc(C(=O)C2=C(O)CCCC2=O)c1=O (centres unmarked) [Compound 107]	40	85	60	60	40	45	20	95	100	100	75	85	90	100	100	100	65	65	75	80	Plant response rating, Ducksalad ([1]; Flood (flooded paddy test), 62 g ai/ha, scale of 0 to 100 where 0 is no effect and 100 is complete control, 13 to 15 days): 0; Plant response rating, Pigweed [4, 14]: 100; Plant response rating, Surinam Grass ([5]; 125 g ai/ha): 80; Plant response rating, Bromegrass, Downy [8, 12]: 0; Bromegrass, Downy plant response rating (0 to 100 scale) [8, 13]: 5; Plant response rating, Bromegrass, Downy [8, 14]: 10; Plant response rating, Bromegrass, Downy [8, 15]: 30; Plant response rating, Bermudagrass [9, 12]: 75; Bermudagrass plant response rating (0 to 100 scale) [9, 13]: 80; Plant response rating, Bermudagrass [9, 14]: 95; Plant response rating, Bermudagrass [9, 15]: 98; Wheat plant response rating (0 to 100 scale) [10]: 5; Plant response rating, Wheat [10]: 5; Plant response rating, Nutsedge, Yellow [11, 12]: 75; Nutsedge, Yellow plant response rating (0 to 100 scale) [11, 13]: 75; Plant response rating, Nutsedge, Yellow [11, 14]: 75; Plant response rating, Nutsedge, Yellow [11, 15]: 85
COCCn1c(-c2cccc(C)c2)ncc(C(=O)C2=C(O)CCCC2=O)c1=O [Compound 117]	100	95	95	75	65	15	0	95	98	100	75	85	95	98	100	100	65	85	95	98	Plant response rating, Bromegrass, Downy [8, 12]: 5; Bromegrass, Downy plant response rating (0 to 100 scale) [8, 13]: 10; Plant response rating, Bromegrass, Downy [8, 14]: 15; Plant response rating, Bromegrass, Downy [8, 15]: 45; Plant response rating, Bermudagrass [9, 12]: 75; Bermudagrass plant response rating (0 to 100 scale) [9, 13]: 90; Plant response rating, Bermudagrass [9, 14]: 95; Plant response rating, Bermudagrass [9, 15]: 100; Wheat plant response rating (0 to 100 scale) [10]: 5; Plant response rating, Wheat [10]: 20; Plant response rating, Nutsedge, Yellow [11, 12]: 0; Nutsedge, Yellow plant response rating (0 to 100 scale) [11, 13]: 0; Plant response rating, Nutsedge, Yellow [11, 14]: 25; Plant response rating, Nutsedge, Yellow [11, 15]: 35
